From US10328051B2, “Proline or proline derivatives for the treatment of dementia” (priority 2014, dated 2019)
Entries after “also recorded” stand apart in the source; their conditions may differ.

Assays:
[1] = Tissue distribution and pharmacokinetics of single dose of radiolabelled 3H-CHP in mice (Study IPSS C053); type: in vivo; details: single dose 3H-CHP
Excerpt: Example 1: Tissue Distribution and Pharmacokinetic Study with CHP Study “Clinical Study in Mice on the Tissue Distribution and Pharmacokinetics of Single Dose of the Radiolabelled ^3H-CHP-Study No.: IPSS C053”—(FIG. 1). This Study has been Designed and Performed According to this Invention
1. Determination of ^3H-CHP distribution in 25 tissues, remaining carcass and whole blood over time.
2. Determination of pharmacokinetic parameters of CHP.
3. Comparison of intravenous (IV), and oral routes of administration.
^3H-CHP Labelling • CHP was labelled on the 4-prime position using tritium. • The scintillation counting technique detects the tritium atom. • Therefore the counting technique detects CHP and some metabolites which incorporate the tritium. […] They were selected using inclusion and exclusion criteria, and were therefore highly standardised.
Dosing Regimen • 48 animals were each administered 50 μCi ^3H-CHP at the start of the experiment. This was termed time zero (00:00 hrs). • 27 mice were dosed via the intravenous (IV) route. • 21 mice were dosed via the oral route. • Six (6) animals were not administered with CHP. They form two control groups of 3 mice each.
Data Collection • 3 mice were sacrificed following the SOP for anesthesia and according to the following time intervals
Sample Collection • From each sacrificed mouse, the following samples were taken: • Whole BloodEyes & Harderian GlandsKidneys & Adrenal GlandsAortaLiverLungSpleenUrinary BladderBone & Bone MarrowCaecumSmall IntestineLarge IntestineLymph Nodes (Mesenteric) Muscle, PancreasBrain & Pituitary GlandBrown FatSubcutaneous FatHeartThymousBoth TestesProstateSkinStomachThyroidSalivary GlandsRemaining CarcassUrine (collected if possible: in practise this was rare)
The remaining carcass sample consisted of the rest after removal of whole blood and the other tissues. Any material cleaned from other tissues listed above was also included. The collected remainings were homogenised before analysis.

[2] = Multiple dose ascending bioavailability and safety study (Phase I) with oral CHP (Study 0202-71); type: in vivo, human
Protocol: Example 5—Study Title: Multiple Dose Ascending Bioavailability and Safety Study Phase 1 with Oral CHP-GALMED Study No: 0202-71
12 healthy Caucasian males were recruited (age: 18-45 years).
Multiple doses of CHP were orally administered: • 4×2.0 g CHP per day, for 14 consecutive days (total daily dose=8.0 g CHP) • 4×3.0 g CHP per day, for 14 consecutive days (total daily dose=12.0 g CHP) Each dose level was administered to all volunteers.
Objectives • To determine the pharmacokinetic parameters and safety of CHP and THP in plasma following oral administration of multiple doses of 8 g CHP (4×2 g) and 12 g CHP (4×3 g)—4× daily, τ=6 h, respectively, in 12 healthy subjects on Day 1 and Day 14. • To model and simulate plasma concentrations of CHP and THP during Days 1 to 14.

[3] = tested on: Alpha Glutathione S-Transferase (α-GST); assay: Measurement of α-Glutathione-S-Transferase following multiple dose administration of CHP (Study 0202-71); type: in vivo, human; details: healthy volunteers
Excerpt: Example 6—Measurement of α-Glutathione-S-Transferase Following Multiple Dose Administration of CHP (Study 0202-71)—(FIG. 7)
Study title: Measurement of α-Glutathione-S-Transferase following multiple dose administration of CHP (Study 0202-71)
12 healthy Caucasian males were recruited (age: 18-45 years). Multiple doses of CHP were orally administered: • 4×2.0 g CHP per day, for 14 consecutive days (total daily dose=8.0 g CHP) • 4×3.0 g CHP per day, for 14 consecutive days (total daily dose=12.0 g CHP)
To determine the effect of CHP on the blood concentration of Alpha Glutathione S-Transferase (α-GST) following the administration of: • 4×2.0 g CHP per day, for 14 consecutive days (total daily dose=8.0 g CHP) • 4×3.0 g CHP per day, for 14 consecutive days (total daily dose=12.0 g CHP)
The P-value obtained was 0.0017, indicating a 99.8% that the decreased observed was not the result of chance. A one-sample two-sided t-test was used, using the data from day 0-day 17.

Collagen IV = assay: Measurement of Collagen-IV following multiple dose administration of CHP (Study 0202-71); type: in vivo, human; details: healthy volunteers, multiple oral doses of CHP for 14 days; P-value 0.0016 (t-test), 0.0047 (Wilcoxon-test)
Excerpt: Example 7—Study Title: Measurement of Collagen-IV Following Multiple Dose Administration of CHP-Study 0202-71—(FIG. 8)
Using a one-sample two-sided t-test, a P-value of 0.0016 was obtained, indicating a 99.8% that the decreased observed was not the result of chance. Using a one-sample two-sided Wilcoxon-test, a P-value of 0.0047 was obtained, indicating a 99.5% that the decreased observed was not the result of chance.

[4] = tested on: patients suffering from cancer, chronic liver diseases (liver fibrosis) and mild Alzheimer's disease/dementia; assay: Phase II clinical studies (Example 12.1-12.4): safety, toxicity (CTC), Quality of Life, immune functions; type: in vivo, human
Excerpt: According to the example No. 12 in this invention, the safety, efficacy and Quality of Life (QoL) of CHP as monotherapy have been investigated in patients suffering from cancer, chronic liver diseases (liver fibrosis) and mild Alzheimer's disease/dementia The following four (4) ICH-GCP
Title: Phase II—CHP as antitumour agent in patients with resected colorectal cancer and liver metastasis; 60 patients—Study IPSS-A04 (Example 12.1).
Title: Phase II—CHP in patients with locally advanced or metastatic pancreatic cancer—14 patients Study IPSS B013 (Example 12.2).
Title: Evaluation of safety and efficacy of CHP in patients with urogenital Cancer—25 patients—Study IPSS-D002 (Example 12.3).
(§1) Title: Phase II—CHP in patients with chronic viral hepatitis, chronic alcohol liver diseases without cirrhosis or primary sclerosing cholangitis 45 patients—Study IPSS-B025 (Example 12.4).
According to the examples in this invention, the objectives of these studies were: • Assessment the efficacy and safety of CHP as monotherapy have been investigated in patients suffering from cancer, chronic liver diseases (liver fibrosis) and mild Alzheimer's disease/dementia.
The following validated evaluation systems have been used: • 1. Evaluation of Quality of Life as measured by the FACT questionnaires. • 2. Evaluation of the toxicity and safety of CHP treatment as measured by the Common Toxicity Criteria CTC. • Subjective assessments mild Alzheimer' patients: Overall physical conditions, Cognitive conditions, Quality of Life (QoL)
According to the study protocols for the performance of these studies, oral and intravenous CHP as monotherapy have been administered to the patients at high doses e.g. 8 gram/day for approximately 180 consecutive days. A number of patients have received the medication for approximately 18 months as mono therapy.

hepatic fibrosis = assay: Phase II clinical study IPSS-B025: anti-fibrotic efficacy in chronic liver diseases; type: in vivo, human
Excerpt: as §1

[5] = male, human, plasma, healthy subjects, oral 4×2.0 g CHP/day
[6] = oral CHP, administration 4× daily

Structure (SMILES): O=C(O)[C@@H]1C[C@H](O)CN1 [CHP, cis-4-hydroxy-L-proline]
- Maximal concentration in the brain following oral administration in comparison to the intravenous application [1]: approximately 48%
- Crossing of the blood-brain barrier ([1]; concentration observed in brain & pituitary gland): can cross the blood-brain barrier
- Cmax [2, 5]: 52.3 µg/mL
- Tmax [2, 5]: 0.98 h
- half-life [2, 5]: 34.2 h
- MRT inf ([2]; male, human, plasma, healthy subjects, oral 4×2.0 g CHP/day, read-out: MRT (0-inf)): 9.33 h
- Accumulation following oral administration ([2]; multiple oral doses of CHP): extensive
- Time after which a steady state was observed ([2]; multiple oral doses of CHP, 4× daily, simulation of plasma concentration-time curves): approximately 48 h
- Plasma half-life relative to the dosing interval ([2]; oral CHP 4× daily, τ=6 h): approximately 4 times
- Css,min lower if 2.0 g of CHP was administered (versus 3.0 g) [2, 6]: 36%
- Increase of AUCss,t, Css,max and Css,ave when the dose was increased from 2.0 g up to 3.0 g [2, 6]: approximately 50%
- Liver cell damage ([3]; multiple oral doses of CHP for 14 days): no effect of liver cell damage
- α-GST levels in blood ([3]; oral 4×2.0 g or 4×3.0 g CHP per day for 14 days, P-value 0.0017, one-sample two-sided t-test, day 0-day 17): inhibits significantly; also recorded: highly significant
- Collagen IV levels in blood (Collagen IV): inhibits significantly
- Immunological activities ([4]; Examples 12.1-12.4): increase of the immunological activities of interleukin-2, Interleukin-12, and Interferon-alpha
- Patients' Quality of Life (QoL questionnaires) ([4]; Phase II clinical studies): improved drastically
- Toxicity and safety as measured by the Common Toxicity Criteria CTC ([4]; Phase II clinical studies): has not cause any nephrotoxicity, neurotoxicity, hepatotoxicity, cardiotoxicity and/or laboratory abnormalities
- Side effects observed ([4]; Phase II clinical studies, CHP monotherapy): Only mild side effects such as nausea and/or vomiting
- Tolerability ([4]; all clinical studies, mostly patients over 60 years, e.g. 8 gram/day for approximately 180 consecutive days, oral and intravenous monotherapy): excellent tolerability
- Drug-drug interactions on co-administration with drugs used by the patients ([4]; mostly elderly patients): no drug-drug interactions have been observed
- Anti-fibrotic efficacy in patients suffering from chronic liver diseases (hepatic fibrosis): inhibited the hepatic fibrosis; also recorded: antifibrotic efficacy; also recorded: anti-fibrotic efficacy; also recorded: anti-fibrotic activities
